The record followed here is patent US20260345798A1, “COMPOUNDS AND METHODS OF USE THEREOF” (Virginia Commonwealth University, priority 2023, published 2026).

Residues, ends and D or L forms follow the SMILES beside them.

Data set [1] has as its system MMP-2 and MMP-9. Kind of data set: MMP-2 and MMP-9 mRNA by qPCR, B16 cells. Conditions: B16 mouse melanoma cells. It counts as cell-based. On the procedure:
FIG. 13C is a series of histograms showing the MMP-2 and MMP-9 mRNA fold change in the cells treated as described in FIG. 13A, as determined by qPCR. *: Statistical significance (p<0.05).
(§1) Total cellular RNA was extracted using an RNAeasy kit (Qiagen, Germany) as described previously (8,9). All Taqman probes used in this study were obtained from Applied Biosystems (Applied Biosystems, Foster City, CA). Real time PCR was performed using an ABI ViiA7 fast real-time PCR system (Applied Biosystems, Foster City, CA).
Background: In qPCR the cycle at which signal appears reflects the starting amount.

Data set [2] has as its system IL-6, IL-10, IL-16. The experiment in a line: IL-6, IL-10, IL-16 mRNA by semiquantitative RT-PCR, human melanoma cells. Conditions: human melanoma cells (A-375, C8161.9). It counts as cell-based. The method, then:
FIG. 14 is a series of histograms showing the IL-6, IL-10, and IL-16 mRNA fold change in RNA lysates prepared from A-375, C8161.9, and B16 cells treated with IVMT-Rx-3 at varying concentrations as indicated.
as §1

In data set [3] the test system is MDA-9/Syntenin. The experiment in a line: MDA-9/Syntenin protein expression. It counts as cell-based.
Data set [4] deals with MMP-2 and MMP-9. The experiment in a line: MMP-2 and MMP-9 protein by Western blotting. To be noted: Western blot; A-375, C8161.9, 24 hours; FIG. 4B. Format: cell-based, human. The method, then: FIG. 4B is a Western blot of C8161.9 and A-375 cells treated with indicated doses of IVMT-Rx-3 for 24 hours. Cell lysates were subjected to Western blotting analysis to determine the expression levels of various signaling proteins (as shown) associated with MDA-9/Syntenin: Src interactions. Western blotting densitometry and relative intensity of protein bands were calculated using Image J software. The values are provided.
(§2) Western blotting was performed following a standard protocol as described previously (6,8,18,29). Antibodies used in this study were purchased from Cell Signaling Technology (Boston, MA): p-Src (Y416), total Src, matrix metalloproteinase-2 (MMP-2) and matrix metaloproteinase-9 (MMP-9), focal adhesion kinase (FAK), p IKKα/β (S176/180), total IKK, p P38 (T180/Y182) and total P38. MDA-9/Syntenin antibody was obtained from Abnova Inc. (Taiwan). β-actin (Sigma-Aldrich, St. Louis, MO) was used as an endogenous loading control. Fibronectin was purchased from EMD Millipore (Billerica, MA).

In data set [5] the target is T1, MDA-9/Syntenin: Src (Homo sapiens, UniProt O00560).
T1 construct: co-immunoprecipitation with anti-MDA-9
Kind of data set: Co-immunoprecipitation MDA-9/Syntenin: Src. Conditions: C8161.9 and A-375 cells; co-IP after 12 hours treatment, fibronectin-coated plates. It counts as cell-based. On the procedure:
FIG. 4A is an immunoblot of C8161.9 and A-375 cells treated for 12 hours with either DMSO vehicle or IVMT-Rx-3 at different doses (as indicated) and re-plated onto fibronectin-coated plates. After 30 minutes, cell lysates were immunoprecipitated and immunoblotted with the indicated antibodies.
Co-immunoprecipitation studies were performed as described previously using immunoprecipitation kits with Dynabeads® Protein G (Life Technologies) (7,8). Briefly, 30 min. after plating cells on fibronectin-coated plates, protein lysates were prepared. 200 μg of total cellular protein was incubated with anti-IgG or anti-MDA-9 overnight to facilitate binding. After subsequent washing and elution from beads, Western blotting was performed with specific antibodies.

Data set [6] has as its system Src and P38 in B16 melanoma cells. Kind of data set: Western blotting, B16 cells. Format: cell-based. To be noted: B16 mouse melanoma cells, Western blot. On the procedure:
as §2

Data set [7] can be described thus: Toxicity in pre-clinical animal models. To be noted: in vivo.
Data set [8] in a line: PK study in mice, IV and IP. Format: in vivo. The method, then: These studies were conducted at the Sanford-Burnham Pharmacology Core facility for measurements of IVMT-Rx-3 in plasma after dosing.
The chemical formula of IVMT-Rx-3 (PDZ1/2i) is provided as FIG. 1A, and synthesis schema is described above in Chemical Example 1. Docked structure of IVMT-Rx-3 in complex with MDA-9/Syntenin is provided as FIG. 1B. After confirming the synthesis product using different analytical methods, e.g., HPLC, LC/MS and NMR (FIGS. 8A-8F), the dissociation constant of IVMT-Rx-3-recombinant MDA-9/Syntenin complex was measured to be 63+/−11 μM using microscale thermophoresis (MST) analysis (FIG. 1C). In order to assess if this hybrid chimeric molecule (small molecule linked to a peptide) was suitable for cellular and in vivo assays, initial PK studies in mice were performed with IVMT-Rx-3 administered both IV (5.0 mg/kg) and IP (50.0 mg/kg), and compound concentration in serum was measured at the indicated times (FIG. 1D).

For data set [9], the system named is A-375 and C8161.9 cells. The experiment in a line: Boyden chamber invasion assay, comparison with PDZ1i. It counts as cell-based, human. Conditions: 25 μM each. On the procedure:
FIG. 11A is a series of photomicrographs taken at 10× magnification showing invasion assays of A-375 cells treated with DMSO vehicle, 25 μM PDZ1i, or 25 μM IVMT-Rx-3, as well as histograms showing quantification of the average percent invasion of three independent experiments±standard deviation. *: Statistical significance (p<0.05).
FIG. 11B is a series of photomicrographs taken at 10× magnification showing invasion assays of C8161.9 cells treated with DMSO vehicle, 25 μM PDZ1i, or 25 μM IVMT-Rx-3 in C8161.9 melanoma cells, as well as histograms showing quantification of the average percent invasion of three independent experiments±standard deviation. *: Statistical significance (p<0.05).
Invasive phenotype was measured using a Boyden Chamber Assay as described previously (6,8,18). Briefly, 25,000 cells were plated on the upper chamber of the trans well in FBS free media and allowed to invade the Matrigel layer towards the bottom chamber supplemented with complete media. Twenty-four hr. after plating, the invaded cells were fixed and counted under a bright field microscope.

For data set [10], the system named is primary normal human epidermal melanocytes (NHEM). The experiment in a line: MTT and colony formation assays in normal human melanocytes. It counts as cell-based. The method, then: FIG. 2A is a histogram showing the results of an MTT assay of normal human melanocytes treated with varying concentrations of IVMT-Rx-3.
FIG. 2B is a histogram showing the results of a colony formation assay of normal human melanocytes treated with varying concentrations of IVMT-Rx-3. Two-hundred cells were plated on 60-mm dishes, treated with IVMT-Rx-3 at different doses. Every third day, culture media was replaced with fresh IVMT-Rx-3-containing media. After two weeks, colonies were stained, counted and graphs plotted.
The effect of IVMT-Rx-3 on primary normal human epidermal melanocyte cell growth and survival was determined after short term (24 hr., growth assays) (FIG. 2A) and long-term exposure (3-week, clonal assays) (FIG. 2B).

T1 sequence (O00560 whole entry): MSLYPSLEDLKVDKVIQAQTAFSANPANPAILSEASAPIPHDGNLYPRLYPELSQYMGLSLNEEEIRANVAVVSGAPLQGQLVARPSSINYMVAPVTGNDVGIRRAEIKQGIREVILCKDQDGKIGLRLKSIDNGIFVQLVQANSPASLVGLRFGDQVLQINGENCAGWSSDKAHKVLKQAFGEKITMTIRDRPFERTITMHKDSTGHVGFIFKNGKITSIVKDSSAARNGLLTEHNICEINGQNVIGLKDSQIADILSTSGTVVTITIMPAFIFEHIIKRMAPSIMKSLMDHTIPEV

Regarding `Cc1cc(NC(=O)c2nc3[nH]c4c(c(=O)n3n2)CCC4)c(C)cc1NC(=O)CCOCCC(=O)N[C@H](C(=O)N[C@@H](CC(N)=O)C(=O)N[C@@H](CCC(=O)O)C(=O)N[C@@H](Cc1ccc(O)cc1)C(=O)N[C@@H](Cc1ccc(O)cc1)C(=O)N[C@H](C(=O)O)C(C)C)[C@@H](C)O` [IVMT-Rx-3] (HELM PEPTIDE1{[Cc1cc(NC(=O)c2nc3[nH]c4c(c(=O)n3n2)CCC4)c(C)cc1NC(=O)CCOCCC(=O)[*:2]].T.N.E.Y.Y.V}$$$$V2.0), in data set [1], the “expression of MMP-2 and MMP-9” value was “lower expression of MMP-2 and MMP-9”. Moreover, the “IL-6, IL-10, IL-16 expression” value in [2] is listed as “Down-regulation”. Also, the “effect on MDA-9/Syntenin protein expression” value in data set [3] was “does not affect MDA-9/Syntenin protein expression”. Further, in data set [4], the “MMP-2 and MMP-9 expression (translational level)” value is “down regulation”. Besides, the “disruption of MDA-9/Syntenin: Src interactions” value in [5] is “disrupted MDA-9/Syntenin: Src interactions”. Also, the “Src and downstream P38” value in [6] is “downregulation of Src and downstream P38”. For the same compound, the “toxicity in pre-clinical animal models” value in data set [7] is listed as “without provoking toxicity”. In addition, the persistence in vivo entry in data set [8] (IV 5.0 mg/kg and IP 50.0 mg/kg) was “long-lived in vivo”. Also, the bioavailability in data set [8] (mouse, serum, IP 50.0 mg/kg (IV 5.0 mg/kg)) was found to be 10%. Further, the “anti-invasive efficacy in comparison with PDZ1i” value in [9] is “significantly enhanced the anti-invasive efficacy in comparison with PDZ1i”. Moreover, in data set [10] (50 μM, repeated treatment, FIG. 2A and 2B), the “effect on cell proliferation on repeated treatment” value is listed as “did not show any effect on cell proliferation”. In addition, the “toxicity in primary melanocytes” value in data set [10] (50 μM, 24 hr growth assay and 3-week clonal assay) is listed as “No significant toxicity”. The “toxicity in early passage normal human melanocytes” value in data set [10] (summary statement) is listed as “without provoking toxicity”. Moreover, the “effect on cell proliferation in NHEM (MTT assay)” value in data set [10] (varying concentrations, FIG. 2A) was “lack of effect”.

In general, bioavailability refers to the share of a dose that reaches the circulation, judged against a reference dose that is usually intravenous. Low readings indicate poor availability, high ones good availability.
